Publication PMC11002876, “KcsA-Kv1.x chimeras with complete ligand-binding sites provide improved predictivity for screening selective Kv1.x blockers” (The Journal of Biological Chemistry, 2024)
Changes are numbered by the printed parent chain. Where a SMILES comes first, the peptide text is derived from it.

biological target: T1, KcsA-Kv1.3 T+F chimera (Streptomyces lividans, UniProt P0A334, A54D/A57S/G53D/G56T/I60S/L59F/L81M/Q58G/R52A/R64D/T61S/Y62I/Y82H); assay: Phage ELISA-binding assay, KcsA-Kv1.3 T+F; parameters: species or system human Kv1.3 turret and filter in Streptomyces lividans KcsA; conditions: toxin displayed on M13 phage, Fig. 6D
T1 construct: made in house; host or cells: E. coli C41(DE3) (pET45b)
T1 sequence (P0A334 1-160 R52A/G53D/A54D/G56T/A57S/Q58G/L59F/I60S/T61S/Y62I/R64D/L81M/Y82H): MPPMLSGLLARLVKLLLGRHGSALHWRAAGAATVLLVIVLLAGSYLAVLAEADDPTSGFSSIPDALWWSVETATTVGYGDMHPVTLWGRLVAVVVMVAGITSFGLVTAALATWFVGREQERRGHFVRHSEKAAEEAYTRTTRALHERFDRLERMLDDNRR
Experimental: (§1) Phage display test solutions were prepared according to routine phage display protocols ([62]). Phosphorylated and annealed oligonucleotides encoding the peptide construct were ligated into linearized pAS62 phagemid vector (https://patents.google.com/patent/WO2022144560A1/en) at a vector/insert ratio of 1:3. The final phagemid construct harbored a signal sequence followed by the peptide of interest, a linker sequence ([…]), and the C-terminal part of the P3 coat protein (amino acids: 216-424 of NP_510891.1). Chemically competent XL1-Blue E. coli cells (2022249, Agilent) were transformed with the ligation product and then streaked onto ampicillin (100 μg/ml) containing LB/Amp plates and incubated for 16 h at 37 °C. A few clones were sequenced, and a single colony with confirmed target sequence was inoculated into 3 ml 2 YT medium supplemented with 100 μg/ml ampicillin and incubated at 37 °C until the culture reached midlog phase. The culture was infected with M13KO7 helper phage (N0315S, New England Biolabs) (phage/cell ratio 10:1) and was incubated for 30 min at 37 °C. The 3 ml culture was transferred into 200 ml 2YT medium, supplemented with 100 μg/ml ampicillin and 25 μg/ml kanamycin, and incubated overnight at 37 °C. The overnight cell culture (200 ml) was pelleted by centrifugation at 8000g for 10 min in 400 ml centrifuge tubes at 4 °C. […] The particle concentrations of phage solutions were determined using a NanoDrop One C (Thermo Fisher Scientific) spectrophotometer. The phage particle concentration was assessed according to the formula: (A268–A320) × 5 × 10^12 particles/ml ([62]). […]
(§2) Phage stock solutions were diluted to working concentration with phage resuspension buffer supplemented with 2 mM DDM. […] Following blocking, the wells were washed 4× with washing buffer (300 μl TBS-Tween, 0.1% v/v) using a Wellwash Versa microplate washer (Thermo Fisher Scientific); then 50 μl phage solution (in TBS-BSA-Tween, 0.1% v/v, 2 mM DDM) at determined phage concentration was added to the wells and incubated for 1 h at room temperature on a horizontal shaker. […]

**Q.** How did the “rank order of phage binding to KcsA-Kv1.3 T+F” value (“rank order of phage binding” below) turn out when CC[C@H](C)[C@@H]1NC(=O)CNC(=O)[C@H](Cc2ccccc2)NC(=O)[C@H](CCC(N)=O)NC(=O)[C@H](C)NC(=O)[C@H](CCCCN)NC(=O)[C@@H]2CSSC[C@@H](C(=O)N[C@@H](Cc3ccc(O)cc3)C(=O)N3CCC[C@H]3C(=O)N[C@@H](Cc3c[nH]cn3)C(=O)O)NC(=O)[C@H](CCCCN)NC(=O)[C@@H]3CSSC[C@H](NC(=O)[C@H](CCC(N)=O)NC(=O)[C@H](CCCCN)NC(=O)[C@@H]4CCCN4C(=O)[C@H](CO)NC(=O)[C@H]([C@@H](C)O)NC(=O)[C@@H](NC(=O)[C@H](CCCCN)NC(=O)[C@@H](NC(=O)[C@H](CC(=O)O)NC(=O)[C@@H](NC(=O)[C@@H](NC(=O)[C@@H](N)[C@@H](C)O)C(C)C)[C@@H](C)CC)C(C)C)CSSC[C@H](NC(=O)[C@H](CCCCN)NC(=O)[C@H](C)NC(=O)CNC(=O)[C@H](C)NC(=O)[C@H](CCCNC(=N)N)NC1=O)C(=O)N[C@@H](CCSC)C(=O)N[C@@H](CC(N)=O)C(=O)NCC(=O)N[C@@H](CCCCN)C(=O)N3)C(=O)N[C@@H](CC(C)C)C(=O)N1CCC[C@H]1C(=O)N1CCC[C@H]1C(=O)N2 [HgTx1, Hongotoxin-1] (HELM PEPTIDE1{T.V.I.D.V.K.C.T.S.P.K.Q.C.L.P.P.C.K.A.Q.F.G.I.R.A.G.A.K.C.M.N.G.K.C.K.C.Y.P.H}$PEPTIDE1,PEPTIDE1,7:R3-29:R3|PEPTIDE1,PEPTIDE1,13:R3-34:R3|PEPTIDE1,PEPTIDE1,17:R3-36:R3$$$V2.0; N-terminus and C-terminus assumed) was run?
**A.** Its value is “Vm24 > HgTx1 > KTX1”.

**Q.** Which “rank order of phage binding” value does the source give for CC[C@H](C)[C@H](NC(=O)[C@H](CCC(=O)O)NC(=O)[C@@H](NC(=O)CN)C(C)C)C(=O)N[C@@H](CC(N)=O)C(=O)N[C@H](C(=O)N[C@@H](CCCCN)C(=O)N[C@H]1CSSC[C@@H]2NC(=O)[C@H](CCCCN)NC(=O)CNC(=O)[C@H](Cc3ccccc3)NC(=O)[C@H](CCCNC(=N)N)NC(=O)[C@H](CCSC)NC(=O)CNC(=O)[C@H](C)NC(=O)[C@H](CC(=O)O)NC(=O)[C@H](CCCCN)NC(=O)[C@@H]3CSSC[C@@H](C(=O)N[C@H](C(=O)N4CCC[C@H]4C(=O)N[C@@H](CCCCN)C(=O)O)[C@@H](C)O)NC(=O)[C@H](Cc4c[nH]cn4)NC(=O)[C@H](CSSC[C@H](NC(=O)[C@H](CCC(N)=O)NC(=O)[C@@H]4CCCN4C(=O)[C@H](CO)NC(=O)CNC(=O)[C@H](CO)NC1=O)C(=O)N[C@@H](CC(C)C)C(=O)N[C@@H](CCCCN)C(=O)N1CCC[C@H]1C(=O)N3)NC(=O)[C@H](CCCCN)NC(=O)[C@H](CCCNC(=N)N)NC(=O)[C@H](CC(N)=O)NC(=O)[C@H](CCSC)NC2=O)C(C)C [KTX1, Kaliotoxin-1] here?
**A.** The value was “Vm24 > HgTx1 > KTX1”.

**Q.** With CC[C@H](C)[C@H](NC(=O)[C@H](C)NC(=O)[C@H](C)NC(=O)[C@H](C)N)C(=O)N[C@@H](CO)C(=O)N[C@H]1CSSC[C@@H]2NC(=O)[C@H](CCCCN)NC(=O)CNC(=O)[C@H](CC(N)=O)NC(=O)[C@H](CCCCN)NC(=O)[C@@H]3CSSC[C@@H](C(N)=O)NC(=O)[C@H](Cc4ccc(O)cc4)NC(=O)[C@H](Cc4ccc(O)cc4)NC(=O)[C@@H]4CSSC[C@H](NC(=O)[C@H](CCCCN)NC(=O)[C@@H]5CCCN5C(=O)[C@@H]5CCCN5C(=O)[C@H](CSSC[C@H](NC(=O)[C@H](CCCCN)NC(=O)[C@H](CCCNC(=N)N)NC(=O)[C@H](CC(N)=O)NC(=O)[C@H](CCSC)NC2=O)C(=O)N[C@@H](CCCCN)C(=O)N4)NC(=O)[C@H](CCC(=O)O)NC(=O)[C@@H]2CCCN2C(=O)[C@H](CO)NC(=O)CNC(=O)[C@H](C(C)C)NC1=O)C(=O)N[C@@H](CCCNC(=N)N)C(=O)N[C@@H](C)C(=O)N[C@@H](CCC(N)=O)C(=O)NCC(=O)N3 [Vm24, Vm24 toxin] as the compound, how does the “rank order of phage binding” value read?
**A.** The value was “Vm24 > HgTx1 > KTX1”.

biological target: T2, KcsA-Kv1.1 T-only chimera (Streptomyces lividans, UniProt P0A334, R52A/G53E/A54E/P55A/G56E/A57S/Q58H/L59F/I60S/T61S/Y62I/R64D); assay: Phage ELISA-binding assay, KcsA-Kv1.1 T-only; parameters: species or system human Kv1.1 turret in Streptomyces lividans KcsA; conditions: toxin displayed on M13 phage; Fig. 8C
T2 sequence (P0A334 1-160 R52A/G53E/A54E/P55A/G56E/A57S/Q58H/L59F/I60S/T61S/Y62I/R64D): T1 sequence (P0A334 1-160 R52A/G53D/A54D/G56T/A57S/Q58G/L59F/I60S/T61S/Y62I/R64D/L81M/Y82H) with D53E, D54E, P55A, T56E, G58H, M81L, H82Y
Experimental: as §1, §2

**Q.** How did the “phage binding to KcsA-Kv1.1 T-only, in words” value (shortened to “phage binding … in words”) turn out when CC[C@H](C)[C@H](NC(=O)[C@H](CCC(=O)O)NC(=O)[C@@H](NC(=O)CN)C(C)C)C(=O)N[C@@H](CC(N)=O)C(=O)N[C@H](C(=O)N[C@@H](CCCCN)C(=O)N[C@H]1CSSC[C@@H]2NC(=O)[C@H](CCCCN)NC(=O)CNC(=O)[C@H](Cc3ccccc3)NC(=O)[C@H](CCCNC(=N)N)NC(=O)[C@H](CCSC)NC(=O)CNC(=O)[C@H](C)NC(=O)[C@H](CC(=O)O)NC(=O)[C@H](CCCCN)NC(=O)[C@@H]3CSSC[C@@H](C(=O)N[C@H](C(=O)N4CCC[C@H]4C(=O)N[C@@H](CCCCN)C(=O)O)[C@@H](C)O)NC(=O)[C@H](Cc4c[nH]cn4)NC(=O)[C@H](CSSC[C@H](NC(=O)[C@H](CCC(N)=O)NC(=O)[C@@H]4CCCN4C(=O)[C@H](CO)NC(=O)CNC(=O)[C@H](CO)NC1=O)C(=O)N[C@@H](CC(C)C)C(=O)N[C@@H](CCCCN)C(=O)N1CCC[C@H]1C(=O)N3)NC(=O)[C@H](CCCCN)NC(=O)[C@H](CCCNC(=N)N)NC(=O)[C@H](CC(N)=O)NC(=O)[C@H](CCSC)NC2=O)C(C)C [KTX1, Kaliotoxin-1] was run?
**A.** Its value is “ShK > KTX1”.

**Q.** How did the “phage binding … in words” value turn out when CC[C@H](C)[C@@H]1NC(=O)[C@@H]2CSSC[C@H](NC(=O)[C@H](CO)NC(=O)[C@@H](N)C(C)C)C(=O)N[C@@H]([C@@H](C)O)C(=O)NCC(=O)N[C@@H](CO)C(=O)N[C@@H](CCCCN)C(=O)N[C@@H](CC(=O)O)C(=O)N[C@@H](CSSC[C@@H](C(=O)N[C@@H](CCCCN)C(=O)N[C@H]3CSSC[C@@H](C(N)=O)NC(=O)CNC(=O)[C@H](Cc4ccc(O)cc4)NC3=O)NC(=O)[C@H](CO)NC(=O)[C@H](CCCCN)NC(=O)[C@H](CC(N)=O)NC1=O)C(=O)N[C@@H](Cc1ccc(O)cc1)C(=O)N[C@@H](C)C(=O)N1CCC[C@H]1C(=O)N[C@H]1CSSC[C@H](NC(=O)CNC(=O)[C@H]([C@@H](C)O)NC(=O)[C@H](CCC(N)=O)NC(=O)[C@H](CCCCN)NC(=O)[C@H](CCCNC(=N)N)NC1=O)C(=O)N1CCC[C@H]1C(=O)N[C@@H](CC(N)=O)C(=O)N[C@@H](C)C(=O)N[C@@H](CCCCN)C(=O)N2 [MTX, Maurotoxin] (HELM PEPTIDE1{V.S.C.T.G.S.K.D.C.Y.A.P.C.R.K.Q.T.G.C.P.N.A.K.C.I.N.K.S.C.K.C.Y.G.C.[am]}$PEPTIDE1,PEPTIDE1,3:R3-24:R3|PEPTIDE1,PEPTIDE1,9:R3-29:R3|PEPTIDE1,PEPTIDE1,13:R3-19:R3|PEPTIDE1,PEPTIDE1,31:R3-34:R3$$$V2.0; N-terminus and C-terminus assumed) was run?
**A.** Its value is “negligible binding”.

**Q.** How did the “phage binding … in words” value turn out when CC[C@H](C)[C@@H]1NC(=O)[C@@H](NC(=O)[C@H](CO)NC(=O)[C@@H](N)CCCNC(=N)N)CSSC[C@@H](C(=O)O)NC(=O)[C@H]([C@@H](C)O)NC(=O)CNC(=O)[C@@H]2CSSC[C@@H]3NC(=O)[C@H](CCC(N)=O)NC(=O)[C@H](Cc4ccccc4)NC(=O)[C@H](C)NC(=O)[C@H]([C@@H](C)O)NC(=O)[C@H](CSSC[C@H](NC(=O)[C@H](Cc4ccccc4)NC(=O)[C@H](CO)NC(=O)[C@H](CC(C)C)NC(=O)[C@H](CCCNC(=N)N)NC(=O)[C@H](Cc4ccc(O)cc4)NC(=O)[C@H](CCCCN)NC(=O)[C@H](CCSC)NC(=O)[C@H](CO)NC(=O)[C@H](Cc4c[nH]cn4)NC(=O)[C@H](CCCCN)NC3=O)C(=O)N[C@@H](CCCNC(=N)N)C(=O)N[C@@H](CCCCN)C(=O)N[C@@H]([C@@H](C)O)C(=O)N2)NC(=O)[C@H](CCCNC(=N)N)NC(=O)[C@H](CO)NC(=O)[C@H](CCCCN)NC(=O)[C@@H]2CCCN2C(=O)[C@H]([C@@H](C)CC)NC(=O)[C@H]([C@@H](C)O)NC(=O)[C@H](CC(=O)O)NC1=O [ShK, Stichodactyla toxin] was run?
**A.** The value was “ShK > KTX1”.
